Test results reported in PubChem BioAssay AID1259411 (Chemical Carcinogenesis Research Information System (CCRIS), 2018).
Calls of active or inactive are those of the source. How the calls were made is not given here.

System: rodent carcinogenicity bioassays, tumor incidence
Experiment: CCRIS carcinogenicity studies
Summary of the method: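 Archive of carcinogenicity, mutagenicity, tumor promotion and tumor inhibition results drawn from journals, NCI reports and other sources, expert-reviewed; covers 1985-2011 and is no longer updated.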

c1ccc(NNc2ccccc2)cc1
carcinogen call (Species: MOUSE, Strain/Sex: B6C3F1/FEMALE, Route: ORAL, Dose: 0, 0.004, 0.04% TWA, IN DIET FOR 78 WK (STUDY DURATION: 95-96 WK), Dose: 0, 0.004, 0.04% TWA, IN DIET FOR 78 WK (STUDY DURATION: 95-96 WK), Tumor Site: Type of Lesion: LIVER: HEPATOCELLULAR ADENOMA OR CARCINOMA): active; positive
carcinogen call (Species: MOUSE, Strain/Sex: B6C3F1/MALE, Route: ORAL, Dose: 0, 0.008, 0.04% TWA, IN DIET FOR 78 WK (STUDY DURATION: 85 WK), Dose: 0, 0.008, 0.04% TWA, IN DIET FOR 78 WK (STUDY DURATION: 85 WK)): inactive; negative
carcinogen call (Species: RAT, Strain/Sex: F344/FEMALE, Route: ORAL, Dose: 0, 0.004, 0.01% TWA, IN DIET FOR 78 WK (STUDY DURATION: 107-108 WK), Dose: 0, 0.004, 0.01% TWA, IN DIET FOR 78 WK (STUDY DURATION: 107-108 WK), Tumor Site: Type of Lesion: LIVER: NEOPLASTIC NODULE): active; positive
carcinogen call (Species: RAT, Strain/Sex: F344/MALE, Route: ORAL, Dose: 0, 0.008, 0.03% TWA, IN DIET FOR 78 WK (STUDY DURATION: 106-107 WK), Dose: 0, 0.008, 0.03% TWA, IN DIET FOR 78 WK (STUDY DURATION: 106-107 WK), Tumor Site: Type of Lesion: LIVER: NEOPLASTIC NODULE OR HEPATOCELLULAR CARCINOMA, ADRENAL GLAND: PHEOCHROMOCYTOMA OR MALIGNANT PHEOCHROMOCYTOMA, EAR, Tumor Site: Type of Lesion: LIVER: NEOPLASTIC NODULE OR HEPATOCELLULAR CARCINOMA, ADRENAL GLAND: PHEOCHROMOCYTOMA OR MALIGNANT PHEOCHROMOCYTOMA, EAR): active; positive

N[C@H](CCC(=O)N[C@H](Cc1c[nH]c2ccccc12)C(=O)O)C(=O)O
carcinogen call (Species: MOUSE, Strain/Sex: C57BL.CBA, Route: SC, Dose: 0.0145 AND 0.145 MG/KG 2X WK FOR 104 WK (STUDY DURATION: 104 WK)): inactive; negative
carcinogen call (Species: RAT, Strain/Sex: WISTAR, Route: SC, Dose: 0.0145 AND 0.145 MG/KG 2X WK FOR 104 WK (STUDY DURATION: 104 WK)): inactive; negative

CCC1CO1 (stereo not given)
carcinogen call (Species: MOUSE, Strain/Sex: B6C3F1/FEMALE, Route: INHALATION, Dose: 0, 50, 100 PPM 6 HR/D 5D/WK FOR 102 WK (STUDY DURATION: 103 WK), Dose: 0, 50, 100 PPM 6 HR/D 5D/WK FOR 102 WK (STUDY DURATION: 103 WK)): inactive; negative
carcinogen call (Species: MOUSE, Strain/Sex: B6C3F1/MALE, Route: INHALATION, Dose: 0, 50, 100 PPM 6 HR/D 5D/WK FOR 102 WK (STUDY DURATION: 103 WK), Dose: 0, 50, 100 PPM 6 HR/D 5D/WK FOR 102 WK (STUDY DURATION: 103 WK)): inactive; negative
carcinogen call (Species: RAT, Strain/Sex: F344/FEMALE, Route: INHALATION, Dose: 0, 200, 400 PPM 6 HR/D 5 D/WK FOR 103 WK (STUDY DURATION: 104 WK), Dose: 0, 200, 400 PPM 6 HR/D 5 D/WK FOR 103 WK (STUDY DURATION: 104 WK), Tumor Site: Type of Lesion: NASAL CAVITY: PAPILLARY ADENOMA): equivocal
carcinogen call (Species: RAT, Strain/Sex: F344/MALE, Route: INHALATION, Dose: 0, 200, 400 PPM 6 HR/D 5D/WK FOR 103 WK (STUDY DURATION: 104 WK), Dose: 0, 200, 400 PPM 6 HR/D 5D/WK FOR 103 WK (STUDY DURATION: 104 WK), Tumor Site: Type of Lesion: NASAL CAVITY: PAPILLARY ADENOMA, LUNG: ALVEOLAR/BRONCHIOLAR CARCINOMA, LUNG: ALVEOLAR/BRONCHIOLAR ADENOMA OR CARCINOMA, Tumor Site: Type of Lesion: NASAL CAVITY: PAPILLARY ADENOMA, LUNG: ALVEOLAR/BRONCHIOLAR CARCINOMA, LUNG: ALVEOLAR/BRONCHIOLAR ADENOMA OR CARCINOMA): active; positive
